These results are taken from patent US9062028B2, “Bicyclic nitrogen containing heteroaryl TGR5 receptor modulators” (Bristol-Myers Squibb Company, priority 2011, dated 2015).

The structures appear in SMILES notation. Counter-ions that a name gives are not always drawn.

The target of the assay is T1, recombinant human TGR5 (Homo sapiens, UniProt Q8TDU6).
T1 construct: expressed in transfected cells
T1 sequence (Q8TDU6 1-330): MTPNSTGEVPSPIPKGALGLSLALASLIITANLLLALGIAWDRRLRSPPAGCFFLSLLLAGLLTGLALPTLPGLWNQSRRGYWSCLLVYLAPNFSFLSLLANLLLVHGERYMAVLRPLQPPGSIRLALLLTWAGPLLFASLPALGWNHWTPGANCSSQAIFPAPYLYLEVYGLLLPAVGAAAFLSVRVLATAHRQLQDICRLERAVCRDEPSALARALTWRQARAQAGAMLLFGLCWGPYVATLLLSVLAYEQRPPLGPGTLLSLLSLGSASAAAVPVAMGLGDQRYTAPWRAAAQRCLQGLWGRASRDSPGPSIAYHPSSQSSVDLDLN
The experiment in a line: cAMP assay (cAMP accumulation, HTRF) in CHOK1 cells stably expressing TGR5. In kind it is cell-based. To be noted: CHOK1 cells stably expressing human TGR5, 30 minutes at RT, 1% DMSO. The procedure, abridged:
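Agonist-induced cAMP accumulation: stable TGR5-CHOK1 cells treated 30 min at RT with compound (1% DMSO) plus 0.1 mM IBMX. HTRF ratio converted to nM cAMP via standard curve; EC50 from four-parameter logistic fit, midpoint between baseline and maximum.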
(In general: cAMP levels reflect the balance of adenylyl cyclase and phosphodiesterase activity.)
Turning to `Cc1cccc(OCCCC(=O)N2CCSc3c(-c4cnn(Cc5cccc(C(=O)NCCO)c5)c4)cccc32)c1C` [Example 600, 3-((4-(4-(4-(2,3-Dimethylphenoxy)butanoyl)-3,4-dihydro-2H-benzo[b][1,4]thiazin-8-yl)-1H-pyrazol-1-yl)methyl)-N-(2-hydroxyethyl) benzamide], the EC50 was 42 nM. To `Cc1c(Cl)cccc1OCCCC(=O)N1CCSc2c(-c3cnn(Cc4cccc(C(=O)N[C@@H](CC(N)=O)C(=O)O)c4)c3)cccc21` [Example 614, (S)-4-Amino-2-(3-((4-(4-(4-(3-chloro-2-methylphenoxy)butanoyl)-3,4-dihydro-2H-benzo[b][1,4]thiazin-8-yl)-1H-pyrazol-1-yl)methyl)benzamido)-4-oxobutanoic acid] belongs 46 nM. Consider `Cc1c(Cl)cccc1OCCCC(=O)N1CCSc2c(-c3cnn(Cc4cccc(C(=O)N[C@@H](CC[N+](C)(C)C)C(=O)O)c4)c3)cccc21` [Example 617, (S)-3-Carboxy-3-(3-((4-(4-(4-(3-chloro-2-methylphenoxy)butanoyl)-3,4-dihydro-2H-benzo[b][1,4]thiazin-8-yl)-1H-pyrazol-1-yl)methyl)benzamido)-N,N,N-trimethylpropan-1-aminium, TFA salt], for which the EC50 was 175 nM. For the compound `Cc1cccc(OCCCC(=O)N2CCOc3c(-c4cnn(Cc5cccc(C(=O)N[C@@H](CC(=O)O)C(=O)O)c5Cl)c4)cccc32)c1C` [Example 624, (S)-2-(2-Chloro-3-((4-(4-(4-(2,3-dimethylphenoxy)butanoyl)-3,4-dihydro-2H-benzo[b][1,4]oxazin-8-yl)-1H-pyrazol-1-yl)methyl)benzamido)succinic acid], the EC50 turned out to be 1380 nM. For the compound `Cc1c(Cl)cccc1OCCOC(=O)N1CCSc2c(-c3cnn(Cc4cccc(C(=O)NCCS(=O)(=O)O)c4Cl)c3)cccc21` [Example 626, 2-(2-Chloro-3-((4-(4-((2-(3-chloro-2-methylphenoxy)ethoxy)carbonyl)-3,4-dihydro-2H-benzo[b][1,4]thiazin-8-yl)-1H-pyrazol-1-yl)metehyl)benzamido)ethanesulfonic acid], the EC50 is 188 nM. Next, `Cc1c(Cl)cccc1OCCOC(=O)N1CCSc2c(-c3cnn(Cc4cccc(C(=O)NCCC(=O)O)c4Cl)c3)cccc21` [Example 628, 3-(2-Chloro-3-((4-(4-((2-(3-chloro-2-methylphenoxy)ethoxy)carbonyl)-3,4-dihydro-2H-benzo[b][1,4]thiazin-8-yl)-1H-pyrazol-1-yl)methyl)benzamido)propanoic acid]: 195 nM; `Cc1c(Cl)cccc1OCCCC(=O)N1CCSc2c(-c3cnn(Cc4cccc(C(=O)NCCC[C@H](N)C(=O)OC(C)C)c4)c3)cccc21` [Example 635, (S)-Isopropyl 2-amino-5-(3-((4-(4-(4-(3-chloro-2-methylphenoxy)butanoyl)-3,4-dihydro-2H-benzo[b][1,4]thiazin-8-yl)-1H-pyrazol-1-yl)methyl)benzamido)pentanoate, TFA salt]: 177 nM; `Cc1c(Cl)cccc1OCCOC(=O)N1C[C@@H]2C[C@@H]2c2c(-c3cnn(Cc4cc(C(=O)NCS(=O)(=O)O)ccc4Cl)c3)cccc21` [Example 662, (4-Chloro-3-((4-((1aR,7bS)-3-((2-(3-chloro-2-methylphenoxy)ethoxy)carbonyl)-1a,2,3,7b-tetrahydro-1H-cyclopropa[c]quinolin-7-yl)-1H-pyrazol-1-yl)methyl)benzamido) methanesulfonic acid]: 36 nM.

Regarding `COC(=O)[C@@H](CCC(=O)O)NC(=O)c1ccc(Cl)c(Cn2cc(-c3cccc4c3[C@H]3C[C@H]3CN4C(=O)OCCOc3cccc(Cl)c3C)cn2)c1` [Example 672, (R)-4-(4-Chloro-3-((4-((1aR,7bS)-3-((2-(3-chloro-2-methylphenoxy)ethoxy)carbonyl)-1a,2,3,7b-tetrahydro-1H-cyclopropa[c]quinolin-7-yl)-1H-pyrazol-1-yl)methyl)benzamido)-5-methoxy-5-oxopentanoic acid], the EC50 came to 43 nM.

Broadly, the EC50 is the concentration that produces a half-maximal response.
